Literature values in patent US20090012066A1, “Method of Use of Deacetylase Inhibitors” (Novartis AG, priority 2005, published 2009).

What was measured:
[1] = test system: hypertrophy induced by infusion of isoproterenol
[2] = test system: cardiac hypertrophy in transgenic mice that over-express Hop; details: transgenic mice over-expressing Hop; Kook et al. 2003

**Q.** For CC(/C=C/C(=O)NO)=C\[C@@H](C)C(=O)c1ccc(N(C)C)cc1 [trichostatin A], which “effect on hypertrophy induced by infusion of isoproterenol” value [1] is on record?
**A.** Its value is “attenuates hypertrophy”.

**Q.** And the “effect on cardiac hypertrophy” value [2]?
**A.** The value was “prevents cardiac hypertrophy”.
